Experiments:
[1] = In vitro human microsomal stability assay; format: in vitro ADME
Method: (§1) Test compounds were evaluated for metabolic stability in an in vitro rat microsomal stability assay using rat (Sprague-Dawley, from BD Biosciences) liver microsomes and/or an in vitro human microsomal stability assay using human (Xenotech) liver microsomes. […] Incubations were carried out at 37° C. with a final incubation volume of 135 μL. […] A 1.5 μL aliquot of reduced nicotine adenine disphosphonucleotide (NADPH) (Chem-Impex Int'L Inc., Lot 12532024) was also added to the time-zero plates.

[2] = In vitro rat microsomal stability assay; format: in vitro ADME, rat (Sprague-Dawley)
Method: as §1

[3] = Sprague-Dawley, rat, 0.5 h, 0.5 μM, pH 7.4
[4] = 0.5 μM substrate, 0.25 mg/mL microsomal protein, pH 7.4, 37° C., NADPH, 30 minutes

Row | SMILES | HUMAN MICROSOMAL STABILITY (% REMAINING AFTER 30 MINUTES) ([1]; human, 0.5 h, 0.5 μM, pH 7.4) [%] | RAT MICROSOMAL STABILITY (% REMAINING AFTER 30 MINUTES) [2, 3] [%] | HUMAN MICROSOMAL STABILITY (% REMAINING AFTER 30 MINUTES) [1, 4] [%] | RAT MICROSOMAL STABILITY (% REMAINING AFTER 30 MINUTES) [2, 4] [%]
1 | OC(C1CCc2cccnc21)C1(c2ccccc2C(F)(F)F)CCC1 (stereo not drawn) [Example 198, (syn)-6,7-dihydro-5H-cyclopenta[b]pyridin-7-yl{1-[2-(trifluoromethyl)-phenyl]cyclobutyl}methanol] | 0.05 | <0.01 | – | –
2 | O[C@@H](c1ncccn1)C1(c2ccc(C(F)(F)F)cc2)CCC1 [Example 42, (R)-pyrimidin-2-yl{1-[4-(trifluoromethyl)phenyl]cyclobutyl}methanol] | 50 | 40 | – | –
3 | OC(C1CCc2cccnc21)C1(c2ccccc2C(F)(F)F)CCC1 (stereo not drawn) [Example 197, (anti)-6,7-dihydro-5H-cyclopenta[b]pyridin-7-yl{1-[2-(trifluoromethyl)-phenyl]cyclobutyl}methanol] | 0.26 | <0.01 | – | –
4 | CN1CCC(c2ccc(Cl)c(Cl)c2)(C(O)c2ccccn2)CC1 (stereo not drawn) [Example 141, [4-(3,4-dichlorophenyl)-1-methylpiperidin-4-yl](pyridin-2-yl)methanol] | – | – | >85 | 59
5 | OC(C1CCCc2cccnc21)C1(c2ccc(F)c(F)c2)CCC1 (stereo not drawn) [Example 170, (syn)-[1-(3,4-difluorophenyl)cyclobutyl][5,6,7,8-tetrahydroquinolin-8-yl]-methanol] | <0.01 | <0.01 | – | –
6 | OC(c1ccccn1)C1(c2cccnc2)CCC1 (stereo not drawn) [Example 20, pyridin-2-yl(1-pyridin-3-ylcyclobutyl)methanol] | 80 | 81 | – | –
7 | OC(c1ccccn1)C1(c2ccc(Cl)c(Cl)c2)COC1 (stereo not drawn) [Example 87, [3-(3,4-dichlorophenyl)oxetan-3-yl](pyridin-2-yl)methanol] | 47 | 8.6 | – | –
8 | O=C1CC(c2ccnc(C(F)(F)F)c2)(C(O)c2ccccn2)C1 (stereo not drawn) [Example 298, 3-[hydroxy(pyridin-2-yl)methyl]-3-[2-(trifluoromethyl)pyridin-4-yl]cyclobutanone] | 80 | 59 | – | –
9 | O=C1CC(c2cc(C(F)(F)F)ccn2)(C(O)c2ccccn2)C1 (stereo not drawn) [Example 293, 3-[hydroxy(pyridin-2-yl)methyl]-3-[4-(trifluoromethyl)pyridin-2-yl]cyclobutanone] | 78 | 69 | – | –
10 | O=C1CC(c2ccc(C(F)(F)F)cc2)([C@H](O)c2ccccn2)C1 [Example 164, 3-[(S)-hydroxy(pyridin-2-yl)methyl]-3-[4-(trifluoromethyl)phenyl]-cyclobutanone] | 71 | 81 | – | –
11 | OC1CC(c2ccc(Cl)c(Cl)c2)(C(O)c2ncccn2)C1 (single isomer, unassigned) [Example 313] | 81 | >85 | – | –
12 | OC(C1CCc2cccnc21)C1(c2cccc(C(F)(F)F)c2)CCC1 (stereo not drawn) [Example 185, (anti)-6,7-dihydro-5H-cyclopenta[b]pyridin-7-yl{1-[3-(trifluoromethyl)-phenyl]cyclobutyl}methanol] | 0.39 | <0.01 | – | –
13 | OC(C1CCc2cccnc21)C1(c2cccc(OC(F)(F)F)c2)CCC1 (stereo not drawn) [Example 190, (syn)-6,7-dihydro-5H-cyclopenta[b]pyridin-7-yl{1-[3-(trifluoromethoxy)-phenyl]cyclobutyl}methanol] | 3.7 | <0.01 | – | –
14 | OC(C1CCc2cccnc21)C1(c2ccc(OC(F)(F)F)cc2)CCC1 (stereo not drawn) [Example 176, (syn)-6,7-dihydro-5H-cyclopenta[b]pyridin-7-yl{1-[4-(trifluoromethoxy)-phenyl]cyclobutyl}methanol] | 20 | <0.01 | – | –
15 | O=C1CC(c2cccc(OC(F)(F)F)c2)([C@H](O)c2ccccn2)C1 [Example 256, 3-[(S)-hydroxy(pyridin-2-yl)methyl]-3-[3-(trifluoromethoxy)phenyl]-cyclobutanone] | 44 | 55 | – | –
16 | OC(C1CCc2cccnc21)C1(c2ccc(C(F)(F)F)cc2)CCC1 (stereo not drawn) [Example 173, (anti)-6,7-dihydro-5H-cyclopenta[b]pyridin-7-yl{1-[4-(trifluoromethyl)-phenyl]cyclobutyl}methanol] | 45 | <0.01 | – | –

Row | SMILES | HUMAN MICROSOMAL STABILITY (% REMAINING AFTER 30 MINUTES) ([1]; human, 0.5 h, 0.5 μM, pH 7.4) [%] | RAT MICROSOMAL STABILITY (% REMAINING AFTER 30 MINUTES) [2, 3] [%] | HUMAN MICROSOMAL STABILITY (% REMAINING AFTER 30 MINUTES) [1, 4] [%] | RAT MICROSOMAL STABILITY (% REMAINING AFTER 30 MINUTES) [2, 4] [%]
17 | OC(C1CCc2cccnc21)C1(c2cccc(OC(F)(F)F)c2)CCC1 (stereo not drawn) [Example 189, (anti)-6,7-dihydro-5H-cyclopenta[b]pyridin-7-yl{1-[3-(trifluoromethoxy)-phenyl]cyclobutyl}methanol] | 0.65 | <0.01 | – | –
18 | OC1CC(c2ccc(C(F)(F)F)cc2)([C@@H](O)c2ccccn2)C1 (mixture of isomers) [Example 199, 3-[(R)-hydroxy(pyridin-2-yl)methyl]-3-[4-(trifluoromethyl)phenyl]-cyclobutanol] | >85 | >85 | – | –
19 | OC(c1ccccn1)C1(c2ccc(OC(F)(F)F)cc2)CCNCC1 (stereo not drawn) [Example 144, pyridin-2-yl{4-[4-(trifluoromethoxy)phenyl]piperidin-4-yl}methanol] | >85 | 51 | – | –
20 | OC(c1ccccn1)C1(C2CCOC2)CCC1 (stereo not drawn) [Example 284, pyridin-2-yl[1-(tetrahydrofuran-3-yl)cyclobutyl]methanol] | >85 | 16 | – | –
21 | OC(C1CCCc2cccnc21)C1(c2ccccc2C(F)(F)F)CCC1 (stereo not drawn) [Example 195, (anti)-5,6,7,8-tetrahydroquinolin-8-yl{1-[2-(trifluoromethyl)phenyl]-cyclobutyl}methanol] | <0.01 | <0.01 | – | –
22 | OC(c1ccccn1)C1(C2CCOCC2)CCC1 (stereo not drawn) [Example 239, pyridin-2-yl[1-(tetrahydro-2H-pyran-4-yl)cyclobutyl]methanol] | 57 | 0.072 | – | –
23 | OC(C1CCc2cccnc21)C1(c2ccccc2OC(F)(F)F)CCC1 (stereo not drawn) [Example 193, (anti)-6,7-dihydro-5H-cyclopenta[b]pyridin-7-yl{1-[2-(trifluoromethoxy)-phenyl]cyclobutyl}methanol] | 0.02 | <0.01 | – | –
24 | CC(C)(C)OC(=O)N1CCC(c2ccc(OC(F)(F)F)cc2)(C(O)c2ccccn2)CC1 (stereo not drawn) [Example 157, tert-butyl 4-[hydroxy(pyridin-2-yl)methyl]-4-[4-(trifluoromethoxy)phenyl]-piperidine-1-carboxylate] | 28 | 0.93 | – | –
25 | CC(C)(C)OC(=O)N1CCC(c2cccc(OC(F)(F)F)c2)(C(O)c2ccccn2)CC1 (stereo not drawn) [Example 158, tert-butyl 4-[hydroxy(pyridin-2-yl)methyl]-4-[3-(trifluoromethoxy)phenyl]-piperidine-1-carboxylate] | – | – | 3.7 | 0.04
26 | OC1CC(c2ccc(OC(F)(F)F)cc2)(C(O)c2ccccn2)C1 (single isomer, unassigned) [Example 131] | >85 | 50 | – | –
27 | OC(C1CCCc2cccnc21)C1(c2ccccc2OC(F)(F)F)CCC1 (stereo not drawn) [Example 192, (syn)-5,6,7,8-tetrahydroquinolin-8-yl{1-[2-(trifluoromethoxy)phenyl]-cyclobutyl}methanol] | <0.01 | <0.01 | – | –
28 | O/N=C(\c1ccccn1)C1(c2ccc(Cl)c(Cl)c2)CCC1 [Example 230, (Z)-[1-(3,4-dichlorophenyl)cyclobutyl](pyridin-2-yl)methanone oxime] | 33 | 30 | – | –
29 | OC(C1CCCc2cccnc21)C1(c2ccccc2OC(F)(F)F)CCC1 (stereo not drawn) [Example 191, (anti)-5,6,7,8-tetrahydroquinolin-8-yl{1-[2-(trifluoromethoxy)phenyl]-cyclobutyl}methanol] | <0.01 | <0.01 | – | –
30 | OC(c1ccccn1)C1(c2ccc(Cl)c(Cl)c2)CCNCC1 (stereo not drawn) [Example 140, [4-(3,4-dichlorophenyl)piperidin-4-yl](pyridin-2-yl)methanol] | >85 | 37 | – | –
31 | OC(C1CCCc2cccnc21)C1(c2ccc(OC(F)(F)F)cc2)CCC1 (single isomer, unassigned) [Example 178, (syn)-5,6,7,8-tetrahydroquinolin-8-yl{1-[4-(trifluoromethoxy)phenyl]-cyclobutyl}methanol] | 9.2 | <0.01 | – | –
32 | OC(C1CCc2cccnc21)C1(c2cccc(C(F)(F)F)c2)CCC1 (stereo not drawn) [Example 186, (syn)-6,7-dihydro-5H-cyclopenta[b]pyridin-7-yl{1-[3-(trifluoromethyl)-phenyl]cyclobutyl}methanol] | 0.18 | – | – | –
